The values that follow come from ChEMBL document CHEMBL1140569, “Synthesis and structure-activity relationships of thieno[2,3-b]pyrroles as antagonists of the GnRH receptor” (Bioorg Med Chem Lett, 2007).

As usually defined, the solubility is the concentration that dissolves in the medium under given conditions. Read a high solubility as much dissolved substance. As a reminder, the AUC is concentration integrated over time. The low end stands for low exposure, the high end for high exposure. As usually defined, the clearance is a measure of how efficiently the substance is removed, as volume per time. Lower therefore signals inefficient removal. Broadly, the bioavailability is dose-corrected exposure relative to a reference, in per cent. By IC50 is commonly meant the concentration at which inhibition is half-maximal. A higher IC50 goes with weaker potency in that assay.

A short description of series [1]: Solubility in 0.1 M phosphate buffer at pH 7.4.
The nature of series [2]: AUC in rat at 10 mg/kg, po. The series is classed as ADME, organism-based. The note with it: plasma. Further details: dose 10 mg/kg, route oral.
Series [3] in a line: Plasma clearance in rat. It counts as ADME, organism-based.
Series [4] is described as follows: Oral bioavailability in rat. The series is classed as ADME, organism-based. The following applies: in vivo.
Another series deals with Cytochrome P450 3A4 (Homo sapiens, UniProt P08684). The experiment in a line: Inhibition of human CYP3A4.
Series [5] in a line: AUC in rat at 1 mg/kg, po. The series is classed as ADME, organism-based. The arrangement: dose 1 mg/kg, route oral. The following applies: plasma.
The subject of a further series is Rattus norvegicus. Put plainly: Inhibition of LH production in castrated AP Wistar Han rat model at 75 mg/kg, po after 12 hrs by radioimmunoassay. The series is classed as functional, organism-based. Further details: dose 75 mg/kg.

≈ marks a conversion by molar mass, not a printed value. Calls of active or inactive are those of the source. The calls are words filed in the database; no cut-off is given here. Where only a bound is given, the exact number is not on record here.

Chain of Cytochrome P450 3A4 (P08684 whole entry): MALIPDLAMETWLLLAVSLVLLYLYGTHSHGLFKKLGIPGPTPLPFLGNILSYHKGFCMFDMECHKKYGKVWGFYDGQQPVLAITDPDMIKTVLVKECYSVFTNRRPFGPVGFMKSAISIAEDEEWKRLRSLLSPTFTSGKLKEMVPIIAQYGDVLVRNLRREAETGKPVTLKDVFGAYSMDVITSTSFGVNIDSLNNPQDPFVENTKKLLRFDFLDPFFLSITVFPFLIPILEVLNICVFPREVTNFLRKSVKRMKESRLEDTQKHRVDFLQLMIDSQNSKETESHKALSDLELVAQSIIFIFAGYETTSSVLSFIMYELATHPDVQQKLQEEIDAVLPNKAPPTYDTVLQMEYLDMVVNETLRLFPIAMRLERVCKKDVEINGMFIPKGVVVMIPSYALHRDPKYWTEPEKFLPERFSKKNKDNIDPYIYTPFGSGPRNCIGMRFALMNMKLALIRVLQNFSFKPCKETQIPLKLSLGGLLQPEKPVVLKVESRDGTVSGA

For `Cc1cc(C)cc(-c2[nH]c3sc(C(C)(C)C(=O)N4C5CCC4CC5)cc3c2CN2CCN(CC(=O)N3CCCC3)CC2)c1`, in series [1], the solubility came out at 2 µM (≈ 1.2 µg/mL).

As for `Cc1cc(C)cc(-c2[nH]c3sc(C(C)(C)C(=O)N4C5CCC4CC5)cc3c2[C@H](C)CNC(=NC(=O)OC(C)C)N2CCC(c3ccncc3)C2)c1` (stereo partly drawn), in series [1], the concentration in solution (solubility) was 0.8 µM (≈ 0.567 µg/mL).

`COC1CCN(C(=O)C2CCN(CCc3c(-c4cc(C)cc(C)c4)[nH]c4sc(C(C)(C)C(=O)N5C6CCC5CC6)cc34)CC2)C1` (stereo not drawn) returned an AUC in series [2] of 190 µM·h. In series [3], this compound showed a clearance of 0.8 mL/min/kg. For the same compound, in series [4], the bioavailability stood at 38%.

On to `Cc1cc(C)cc(-c2[nH]c3sc(C(C)(C)C(=O)N4C5CCC4CC5)cc3c2[C@H](C)CNC(=O)N2CCC(c3ccncc3)CC2)c1`, for which, in series [1], the concentration in solution (solubility) came to 0.6 µM (≈ 0.383 µg/mL).

On to `Cc1cc(C)cc(-c2[nH]c3sc(C(C)(C)C(=O)N4C5CCC4CC5)cc3c2CCN2CCN(CC(O)CN3CCNCC3)CC2)c1` (stereo not drawn), for which, in series [1], the solubility was 425 µM (≈ 275 µg/mL). The compound further yielded an IC50 on Cytochrome P450 3A4 greater than 10 µM.

In series [5], `Cc1cc(C)cc(-c2[nH]c3sc(C(C)(C)C(=O)N4C5CCC4CC5)cc3c2CCN2CCC(CNC(=O)N3CCOCC3)CC2)c1` registered an AUC of 0.018 µM·h.

`COC(=O)/N=C(/NC[C@@H](C)c1c(-c2cc(C)cc(C)c2)[nH]c2sc(C(C)(C)C(=O)N3C4CCC3CC4)cc12)N1CCC(c2ccncc2)C1` (stereo partly drawn) gave a solubility in series [1] of 4.6 µM (≈ 3.13 µg/mL).

Turning to `Cc1cc(C)cc(-c2[nH]c3sc(C(C)(C)C(=O)N4C5CCC4CC5)cc3c2CCN2CCC(C(=O)N3CCCC(O)C3)CC2)c1` (stereo not drawn), in series [2], the AUC was determined as 39.3 µM·h. In series [3], this compound had a clearance of 1.3 mL/min/kg.

For the compound `Cc1cc(C)cc(-c2[nH]c3sc(C(C)(C)C(=O)N4C5CCC4CC5)cc3c2C(=O)CN2CCC(C(=O)N3CCOCC3)CC2)c1`, the AUC in series [5] is 0.36 µM·h.

In series [1], `CC(=O)NC1CCN(C(=O)CN2CCN(CCc3c(-c4cc(C)cc(C)c4)[nH]c4sc(C(C)(C)C(=O)N5C6CCC5CC6)cc34)CC2)C1` (stereo not drawn) yielded a solubility of 107 µM (≈ 72 µg/mL).

Turning to `Cc1cc(C)cc(-c2[nH]c3sc(C(C)(C)C(=O)N4C5CCC4CC5)cc3c2CCN2CCN(CC(=O)N3CCOCC3)CC2)c1`, the clearance in series [3] was 153 mL/min/kg. In addition, in series [4], the bioavailability was found to be 4%.

As for `Cc1cc(C)cc(-c2[nH]c3sc(C(C)(C)C(=O)N4C5CCC4CC5)cc3c2CCN2CCC(N3CCOCC3)CC2)c1`, in series [5], the AUC amounted to 0.006 µM·h.

In turn, `Cc1cc(C)cc(-c2[nH]c3sc(C(C)(C)C(=O)N4C5CCC4CC5)cc3c2[C@H](C)CN/C(=N/C(=O)OC(C)C)N2CCC(c3ccncc3)CC2)c1` displayed a solubility in series [1] of 1.4 µM (≈ 1.01 µg/mL).

In turn, `Cc1cc(C)cc(-c2[nH]c3sc(C(C)(C)C(=O)N4C5CCC4CC5)cc3c2CCN2CCC(C(=O)N3CCOCC3)CC2)c1` gave an AUC in series [2] of 27.1 µM·h. The compound also yielded a clearance in series [3] of 4 mL/min/kg. The result with Rattus norvegicus was Active.

The compound `Cc1cc(C)cc(-c2[nH]c3sc(C(C)(C)C(=O)N4C5CCC4CC5)cc3c2C(=O)CN2CCN(CC(=O)N3CCCC3)CC2)c1` yielded a solubility in series [1] of 947 µM (≈ 596 µg/mL).

Regarding `CC(=O)N1CCN(CC(O)CN2CCN(CCc3c(-c4cc(C)cc(C)c4)[nH]c4sc(C(C)(C)C(=O)N5C6CCC5CC6)cc34)CC2)CC1` (stereo not drawn), in series [1], the solubility came to 236 µM (≈ 163 µg/mL). Also, at Cytochrome P450 3A4, half-maximal inhibition (IC50) was put at 6 µM.

As for `Cc1cc(C)cc(-c2[nH]c3sc(C(C)(C)C(=O)N4C5CCC4CC5)cc3c2CCN2CCN(CC(=O)N(C)C)CC2)c1`, the concentration in solution in series [1] (solubility) came to 104 µM (≈ 61.3 µg/mL).

In the case of `Cc1cc(C)cc(-c2[nH]c3sc(C(C)(C)C(=O)N4CCCC4)cc3c2[C@H](C)CNC(=O)N2CCC(c3ccccc3)C2)c1` (stereo partly drawn), the concentration in solution in series [1] (solubility) was 56 µM (≈ 33.4 µg/mL). This solubility is about 1.9-fold lower than that of the compound before.

With `CCN(CC)CCOC1CCN(CCc2c(-c3cc(C)cc(C)c3)[nH]c3sc(C(C)(C)C(=O)N4C5CCC4CC5)cc23)CC1`, in series [5], the AUC was 0.002 µM·h.

`Cc1cc(C)cc(-c2[nH]c3sc(C(C)(C)C(=O)N4C5CCC4CC5)cc3c2CCN2CCC(OCC(=O)N3CCOCC3)CC2)c1` registered an AUC in series [2] of 0.526 µM·h.

`Cc1cc(C)cc(-c2[nH]c3sc(C(C)(C)C(=O)N4C5CCC4CC5)cc3c2CCN2CCC(CC(=O)N3CCOCC3)CC2)c1` returned an AUC in series [5] of 0.041 µM·h.

The compound `Cc1cc(C)cc(-c2[nH]c3sc(C(C)(C)C(=O)N4C5CCC4CC5)cc3c2CCN2CCC(C(=O)N3CCOCC3)C(C)C2)c1` (stereo not drawn) yielded an AUC in series [2] of 0.254 µM·h.

Take `COC1CCN(C(=O)C2CCN(CCc3c(-c4cc(C)cc(C)c4)[nH]c4sc(C(C)(C)C(=O)N5C6CCC5CC6)cc34)CC2)CC1`: the AUC in series [2] stood at 358 µM·h. The compound also yielded a clearance in series [3] of 0.1 mL/min/kg. Further, in series [4], the bioavailability was 35%.
